# Data published in article PMC2999418, “Biological Activity and Binding Site Characteristics of the PA1b Entomotoxin on Insects from Different Orders” (Journal of Insect Science, 2007).
# pKd: −log10 of the molar value. Like-named read-outs stand apart in the source and are kept apart here.
# Columns and labels:
# [1] = target: PA1b binding protein on membrane extracts; assay: 125I-PA1b binding (competition) on insect membrane extracts; set-up: species or system Ephestia kuehniella; settings: E. kuehniella membrane extracts; competition with purified 3741 isoform
# Experimental: (§1) The isolation of membrane proteins for binding studies was performed as described by Gressent et al. ([2003]). For PA1b degradation tests, insect extracts were prepared as follows, 1 g of insects were ground with a mortar and pestle in liquid nitrogen. The resulting powder was resuspended in 2 ml of extraction buffer (20 mM Tris-HCl pH 8; 0.25 M sucrose; 2 mM MgCl2). The slurry was centrifuged for 2 min at 1000 g, and the supernatant was stored at -2O°C until required. All the operations were performed at 4°C.
# (§2) The peptidic toxin PA1b-3471 isoform was labelled with I^125 to a specific radioactivity of about 900 Ci.mmor^-1, and then used for binding studies with membrane extracts, according to Gressent et al. ([2003]).
# (§3) PA1b binding activity was present in all insect species, except for the resistant weevil strains and the pea specific pest Bruchus pisorum, regardless of the sensitivity or insensitivity of these insects to PA1b toxicity, as evaluated from our insect bioassays. […] The relative abundance of the binding sites was also slightly different in this group of species, varying from 10 pmol/mg of protein for T. pretiosum to a maximum of 79 pmol/mg of protein for M. persicae.
# [2] = target: PA1b binding protein on membrane extracts; assay: as above; set-up: species or system Myzus persicae; settings: M. persicae membrane extracts; competition with purified 3741 isoform
# Experimental: as §1, §2, §3
# [3] = tested on: Drosophila melanogaster; settings: cited from earlier work
# Experimental: However, diet is not sufficient alone to explain insensitivity, as the three aphid species tested were assayed on the same artificial diet with very different results. We can thus suppose ...
# [4] = tested on: Mamestra brassicae; assay: Cabbage moth larval toxicity test on artificial medium with toxin; format: in vivo; settings: 1000 µg PA1b per g of diet, larvae L1 to pupa; data not shown
# Experimental: The cabbage moth Mamestra brassicae (Lepidoptera) was grown on the artificial medium described by Poitout and Bues ([1974]). PA1b was added to this media and the mortality of larvae (from L1 to pupa) was monitored daily.
# (§4) All toxicity assays were carried out using a mixture of PA1b isoforms (98% purity by HPLC). All tests were performed on at least 30 insects for assays and for control test (without toxin), except for the three aphid species (50 insects) and for Trichogramma (more than 300 eggs by assays). When adults were used, the insects were synchronized at the imaginal molt. The statistical analyses were performed using the JMP software (SAS, Grégy-sur-Yerres FRA).
# [5] = target: PA1b binding protein on membrane extracts; assay: 125I-PA1b binding (competition) on insect membrane extracts; set-up: species or system Bruchus pisorum; settings: B. pisorum membrane extracts; competition with purified 3741 isoform
# Experimental: as §1, §2, §3
# [6] = target: PA1b binding protein on membrane extracts; assay: as above; set-up: species or system Drosophila melanogaster; settings: D. melanogaster membrane extracts; competition with purified 3741 isoform
# Experimental: as §1, §2, §3
# [7] = tested on: Ephestia kuehniella; settings: ref Delobel et al 1998; cited from earlier work
# Experimental: Ephestia kuehniella was previously found to be sensitive to the toxin ([Delobel et al 1998]). In contrast, 1000 µg PA1b per g of diet had no effect on the cabbage moth Mamestra brassicae, either on the mortality or on the development and ecdysis of the insects (data not shown).
# [8] = tested on: Sitophilus oryzae; settings: three natural S. oryzae strains able to feed on pea seeds; ref Grenier et al. 1997; cited from earlier work
# Text: S. oryzae strains resistant to PA1b exist naturally.
# [9] = tested on: Acyrthosiphon pisum; assay: Aphid growth and toxicity assay on artificial diet with toxin; format: in vivo; settings: after six days feeding
# Experimental: (§5) Growth and toxicity assays were carried out on the aphids Aphis gossypii, Myzus persicae and Acyrthosiphon pisum, Hemiptera, according to Rahbé and Febvay ([1993]). Larvae of the fruit fly Drosophila melanogaster, Diptera, were provided by Dr. Allemand (UMR 5558 CNRS-UCBL, Lyon, France).
# as §4
# (§6) Figure 2. Effects of PA1b on three aphid species. Tests were carried out with artificial diet supplemented with the toxin at increasing concentrations, and mortality of the insects was monitored daily (relative larval survival is used in the graph). Circle : A. pisum; Square : M. persicae; Triangle : A. gossypii.
# [10] = tested on: Aphis gossypii; assay: as above; format: in vivo; settings: 1000 µg.ml^-1 in artificial diet
# Experimental: as §5, §4, §6
# [11] = tested on: Myzus persicae; assay: as above; format: in vivo; settings: doses up to 1000 µg.ml^-1 in artificial diet
# Experimental: as §5, §4, §6
# [12] = target: PA1b binding protein on membrane extracts; settings: ref Gressent et al (2003), cited from earlier work
# Text: Table 1. Affinity (Kd) and relative abundance (Bmax) of the PA1b binding protein on membrane extracts from different insect species and strains. | column: Kd (nM); Bmax (pmol/mg of protein)
# [13] = tested on: Culex pipiens; assay: Mosquito larval bioassay, toxin added to water; format: in vivo; settings: 250 µg.ml^-1 of water
# Experimental: The mosquito bioassay was performed on larvae of Culex pipiens (Diptera) in water. The toxin was added directly to the water, and the mortality of L3 larvae was recorded daily.
# as §4
# [14] = target: PA1b binding protein on membrane extracts; assay: 125I-PA1b binding (competition) on insect membrane extracts; set-up: species or system Mamestra brassicae; settings: M. brassicae membrane extracts; competition with purified 3741 isoform
# Experimental: as §1, §2, §3
# [15] = tested on: E. faecium; assay: Antimicrobial test, bacterial survival; format: cell-based; settings: increasing toxin concentration up to 64 µg-ml^-1, 24 and 48 hours
# Experimental: (§7) A possible antimicrobial and antifungal activity of PA1b was next tested on four bacterial and three fungal species. The experiments were done using an increasing toxin concentration, up to 64 µg-ml^-1.
# [16] = tested on: E. coli; assay: Antimicrobial test, bacterial survival; format: cell-based; settings: increasing toxin concentration up to 64 µg-ml^-1, 24 and 48 hours
# Experimental: as §7
# [17] = tested on: P. aeruginosa; assay: Antimicrobial test, bacterial survival; format: cell-based; settings: increasing toxin concentration up to 64 µg-ml^-1, 24 and 48 hours
# Experimental: as §7
# [18] = tested on: S. aureus; assay: Antimicrobial test, bacterial survival; format: cell-based; settings: increasing toxin concentration up to 64 µg-ml^-1, 24 and 48 hours
# Experimental: as §7
# [19] = target: PA1b binding protein on membrane extracts; assay: 125I-PA1b binding (competition) on insect membrane extracts; set-up: species or system Harmonia axyridis; settings: H. axyridis membrane extracts; competition with purified 3741 isoform
# Experimental: as §1, §2, §3
sequence,measurement,setting,value
"ASCNGVCSPFEMPPCGTSACRCIPVGLVIGYCR NPSG (bicyclic or more) [PA1b, plant peptide of 37 amino acids purified from pea (Pisum sativum) seeds; entomotoxic cystine-knot peptide with three disulfide bonds]",pKd,[1],7.70
same,pKd,[2],7.21
same,toxicity to larvae grown on a fruit-based mixture,"[3]; fruit-based mixture diet, dose similar to that used on other insects, delayed larval development, increased larval mortality, ref Gressent, unpublished results",significantly toxic
same,sensitivity to the toxin,[3]; ref Delobel et al.1998,insensitive
same,"effect on mortality, development and ecdysis",[4],no effect
same,Kd / binding,[5],no binding detectable
same,pKd,[6],7.80
same,sensitivity to the toxin,[7],sensitive
same,resistance of pea-feeding S. oryzae strains to the purified toxin,[8],fully resistant
same,mortality,[9]; 150 µg.ml^-1 in artificial diet,57%
same,mortality,[9]; 500 µgml^-1 in artificial diet,total
same,lethality,[10],37%
same,mortality,[11],no mortality
same,pKd,[12]; S. granarius Brayard membrane extracts,8.20
same,pKd,[12]; S. zeamais Ls membrane extracts,8.05
same,survival of L3 larvae,[13]; after one day,100%
same,survival of L3 larvae,[13]; after two days,0%
same,pKd,[14],7.70
same,effect on bacterial survival,[15],no effect was detected
same,effect on bacterial survival,[16],no effect was detected
same,effect on bacterial survival,[17],no effect was detected
same,effect on bacterial survival,[18],no effect was detected
same,pKd,[19],7.28
